The assay addresses T1, integrin α4β7 (Homo sapiens, UniProt P13612+P26010).
T1 sequence (P13612 34-977 limits assumed): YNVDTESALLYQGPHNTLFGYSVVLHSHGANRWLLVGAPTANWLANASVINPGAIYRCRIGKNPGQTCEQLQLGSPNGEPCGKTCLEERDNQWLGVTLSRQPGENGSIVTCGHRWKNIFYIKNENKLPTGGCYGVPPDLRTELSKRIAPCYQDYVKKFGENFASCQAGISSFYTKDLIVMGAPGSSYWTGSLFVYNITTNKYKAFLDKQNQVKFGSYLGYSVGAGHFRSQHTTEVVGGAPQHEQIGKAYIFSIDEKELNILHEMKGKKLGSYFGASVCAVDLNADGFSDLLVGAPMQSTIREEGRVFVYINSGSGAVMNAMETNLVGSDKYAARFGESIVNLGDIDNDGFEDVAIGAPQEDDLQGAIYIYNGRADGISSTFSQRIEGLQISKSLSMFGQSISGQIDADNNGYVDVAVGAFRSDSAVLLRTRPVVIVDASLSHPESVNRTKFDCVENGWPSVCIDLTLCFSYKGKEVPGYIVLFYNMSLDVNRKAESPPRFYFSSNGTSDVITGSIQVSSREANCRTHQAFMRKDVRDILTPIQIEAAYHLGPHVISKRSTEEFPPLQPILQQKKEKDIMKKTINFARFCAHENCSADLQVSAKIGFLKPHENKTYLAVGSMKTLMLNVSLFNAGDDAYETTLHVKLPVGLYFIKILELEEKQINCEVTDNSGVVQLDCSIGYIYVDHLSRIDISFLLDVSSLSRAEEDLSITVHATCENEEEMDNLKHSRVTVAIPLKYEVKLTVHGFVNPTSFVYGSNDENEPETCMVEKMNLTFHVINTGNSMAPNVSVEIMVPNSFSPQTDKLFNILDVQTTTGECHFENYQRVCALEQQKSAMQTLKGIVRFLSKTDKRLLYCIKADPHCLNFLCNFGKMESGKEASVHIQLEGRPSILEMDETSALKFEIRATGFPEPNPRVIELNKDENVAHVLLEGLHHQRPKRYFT
T1 sequence (P26010 20-723 limits assumed): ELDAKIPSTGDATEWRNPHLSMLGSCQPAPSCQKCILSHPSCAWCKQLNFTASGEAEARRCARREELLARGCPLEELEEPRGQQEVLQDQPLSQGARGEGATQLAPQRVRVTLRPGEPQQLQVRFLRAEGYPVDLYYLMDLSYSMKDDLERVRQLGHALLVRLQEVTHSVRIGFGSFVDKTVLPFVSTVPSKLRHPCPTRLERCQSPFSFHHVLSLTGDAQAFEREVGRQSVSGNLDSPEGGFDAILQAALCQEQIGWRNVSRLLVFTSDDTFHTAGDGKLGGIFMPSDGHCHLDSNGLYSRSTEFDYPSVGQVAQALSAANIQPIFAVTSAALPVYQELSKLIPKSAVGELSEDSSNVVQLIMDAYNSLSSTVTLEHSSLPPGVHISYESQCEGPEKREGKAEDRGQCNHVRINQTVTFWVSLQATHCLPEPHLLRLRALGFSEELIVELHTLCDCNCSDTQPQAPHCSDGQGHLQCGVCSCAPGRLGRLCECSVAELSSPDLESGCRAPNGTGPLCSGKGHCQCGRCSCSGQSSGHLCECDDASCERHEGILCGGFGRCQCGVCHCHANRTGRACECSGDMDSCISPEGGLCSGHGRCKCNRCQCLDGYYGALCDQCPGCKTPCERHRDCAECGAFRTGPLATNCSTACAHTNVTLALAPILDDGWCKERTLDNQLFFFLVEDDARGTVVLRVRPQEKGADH
Put plainly: Fluorescence Polarization (FP) assay for α4β7 binding, competition with fluorescein-labeled peptide. Conditions: 6.5 nM integrin α4β7, 3 nM fluorescein-labeled peptide, 2 mM MnCl2; read-out: FP Assay (Example 5) IC50. The protocol:
Three in vitro assays were used to examine the α4β7 mechanistic process used by cells: 1) ligand:receptor affinity, 2) the avidity of those interactions on a cell's surface, and 3) how those interactions fare under an imposing force. In Example 5, a Fluorescence Polarization (FP) assay is used to measure compound activity through binding competition with the fluorescein-labeled peptide. In Example 6, the potency of compounds against α4β7 is measured in the cell-based ligand binding assay (LBA), using RPMI 8866 cells incubated with the compound samples in competition with soluble MAdCAM-1 ligand. In Example 7, activity of compounds is evaluated in a cell adhesion assay that mechanistically tests what occurs in vivo when trafficking cells utilize α4β7 to adhere to MAdCAM-1 expressing HEVs of the gut during the extravasation process. In the cell adhesion assay of Example 7, a MAdCAM1-(Fc) is coated on plastic, and α4β7 expressing cells (RPMI-8866) are allowed to adhere to the coated surface in the presence of the test compounds. Next, the force of washing with buffer is applied to cells thereby testing the strength of that adhesion. Unattached cells are removed and the remaining adherent cells are quantified.
Fluorescence Polarization (FP) assays were used to measure compound activity through binding competition with the fluorescein-labeled peptide […]{Lys(FITC)}. In the assay, 6.5 nM of integrin α4β7 was incubated with the test compound in 2 mM manganese chloride, 0.1 mM calcium chloride, 20 mM HEPES buffer at pH 7.3, 150 mM sodium chloride, 0.01% Triton X-100, 2% DMSO, and 3 nM of the fluorescein-labeled peptide. Running the assays in 384-well plates, the integrin protein was pre-incubated with the test compounds for 15 minutes at 22° C. before the fluorescein-labeled peptide was added. After the fluorescein-labeled peptide was added, the assay was incubated at 22° C. for 1 hour and fluorescence polarization was measured. IC50 values were determined by non-linear regression, four-parameter curve fitting.
A general note: Polarisation of emitted light reports the rotation of a fluorescent probe.

Consider `Cc1cc(-c2c(C)ccc(F)c2C)cc([C@H](CC(=O)O)NC(=O)C(CC(C)C)n2cc(CCN3CCC3)c(C(F)(F)F)cc2=O)c1F` (single isomer, unassigned) [AF-P2], for which the IC50 is at most 10 nM. The figure for `Cc1ccn([C@@H](NC(C)C)C(=O)N[C@@H](CC(=O)O)c2cncc(-c3c(C)cccc3C)c2)c(=O)c1` [Example C-7, reference compound] is at most 10 nM. To `Cc1ccn([C@@H](CC(C)C)C(=O)N[C@H](CC(=O)O)c2cncc(-c3c(C)cccc3C)c2)c(=O)c1` [Example C-28, reference compound] belongs 10 to 500 nM.

As for `Cc1ccc(F)c(C)c1-c1cc(C2CC2)c(F)c([C@H](CC(=O)O)NC(=O)[C@H](CC(C)C)n2cc(CCN3CCC3)c(C(F)(F)F)cc2=O)c1F` [HH-P2, (3S)-3-(2-(5-(2-(azetidin-1-yl)ethyl)-2-oxo-4-(trifluoromethyl)pyridin-1(2H)-yl)-4-methylpentanamido)-3-(5-cyclopropyl-2,3′,4-trifluoro-2′,6′-dimethyl-[1,1′-biphenyl]-3-yl)propanoic Acid], the IC50 is at most 10 nM.

Regarding `Cc1cc(C)c(-c2cc(C3CC3)c(F)c([C@H](CC(=O)O)NC(=O)[C@H](CC(C)C)n3cc(CCN4CCC4)c(C(F)(F)F)cc3=O)c2F)c(C)c1` [HM-P2, (3S)-3-(2-(5-(2-(azetidin-1-yl)ethyl)-2-oxo-4-(trifluoromethyl)pyridin-1(2H)-yl)-4-methylpentanamido)-3-(5-cyclopropyl-2,4-difluoro-2′,4′,6′-trimethylbiphenyl-3-yl)propanoic Acid], the IC50 was at most 10 nM. To `Cc1cc(C2CC2)cc(C)c1-c1cc(C(F)(F)F)c(F)c([C@H](CC(=O)O)NC(=O)[C@H](CC(C)C)n2cc(CCCN(C)C)c(C(F)(F)F)cc2=O)c1F` [HU-P2, (3S)-3-(4′-cyclopropyl-2,4-difluoro-2′,6′-dimethyl-5-(trifluoromethyl)-[1,1′-biphenyl]-3-yl)-3-(2-(5-(3-(dimethylamino)propyl)-2-oxo-4-(trifluoromethyl)pyridin-1(2H)-yl)-4-methylpentanamido)propanoic Acid] belongs at most 10 nM; to `Cc1cc(F)cc(C)c1-c1cc(C(F)(F)F)c(F)c([C@H](CC(=O)O)NC(=O)[C@H](CC(C)C)n2cc(CCCN(C)C)c(C(F)(F)F)cc2=O)c1F` [HW-P2, (3S)-3-(2-(5-(3-(dimethylamino)propyl)-2-oxo-4-(trifluoromethyl)pyridin-1(2H)-yl)-4-methylpentanamido)-3-(2,4,4′-trifluoro-2′,6′-dimethyl-5-(trifluoromethyl)-[1,1′-biphenyl]-3-yl)propanoic Acid], at most 10 nM.

With `Cc1cc(C)c(-c2cc(C(F)(F)F)c(F)c([C@H](CC(=O)O)NC(=O)[C@H](CC(C)C)n3cc(CCCN(C)C)c(C(F)(F)F)cc3=O)c2F)c(C)c1` [HZ-P2, (3S)-3-(2,4-difluoro-2′,4′,6′-trimethyl-5-(trifluoromethyl)biphenyl-3-yl)-3-(2-(5-(3-(dimethylamino)propyl)-2-oxo-4-(trifluoromethyl)pyridin-1(2H)-yl)-4-methylpentanamido)propanoic Acid], the IC50 is at most 10 nM. To `Cc1cc(-c2c(C)cc(F)cc2C)cc([C@H](CC(=O)O)NC(=O)[C@H](CC(C)C)n2cc(CCN(C)C)cc(C(F)F)c2=O)c1F` [I-P2, (3S)-3-(4,4′-difluoro-2′,5,6′-trimethyl-[1,1′-biphenyl]-3-yl)-3-(2-(3-(difluoromethyl)-5-(2-(dimethylamino)ethyl)-2-oxopyridin-1(2H)-yl)-4-methylpentanamido)propanoic Acid] belongs at most 10 nM; to `Cc1cc(C)c(-c2cc(C(F)(F)F)c(F)c([C@H](CC(=O)O)NC(=O)[C@H](CC(C)C)n3cc(CCN(C)C)c(C(F)(F)F)cc3=O)c2F)c(C)c1` [IF-P2, (3S)-3-(2,4-difluoro-2′,4′,6′-trimethyl-5-(trifluoromethyl)-[1,1′-biphenyl]-3-yl)-3-(2-(5-(2-(dimethylamino)ethyl)-2-oxo-4-(trifluoromethyl)pyridin-1(2H)-yl)-4-methylpentanamido)propanoic Acid], at most 10 nM. The figure for `Cc1cc(C)c(-c2cc(C(F)(F)F)c(F)c([C@H](CC(=O)O)NC(=O)[C@H](CC(C)C)n3cc(CCN4CCC4)c(C(F)(F)F)cc3=O)c2F)c(C)c1` [IG-P2, (3S)-3-(2-(5-(2-(azetidin-1-yl)ethyl)-2-oxo-4-(trifluoromethyl)pyridin-1(2H)-yl)-4-methylpentanamido)-3-(2,4-difluoro-2′,4′,6′-trimethyl-5-(trifluoromethyl)biphenyl-3-yl)propanoic Acid] is at most 10 nM. To `Cc1cc(C)c(-c2cc(C)c(F)c([C@H](CC(=O)O)NC(=O)[C@H](CC(C)C)n3cc(CCCN(C)C)c(C(F)(F)F)cc3=O)c2F)c(C)c1F` [IW-P2, (3S)-3-(2-(5-(3-(dimethylamino)propyl)-2-oxo-4-(trifluoromethyl)pyridin-1(2H)-yl)-4-methylpentanamido)-3-(2,3′,4-trifluoro-2′,4′,5,6′-tetramethyl-[1,1′-biphenyl]-3-yl)propanoic Acid] belongs at most 10 nM; to `Cc1cc(F)c(C)c(C)c1-c1cc(C(F)(F)F)c(F)c([C@H](CC(=O)O)NC(=O)[C@H](CC(C)C)n2cc(CCN3CCC3)c(C(F)(F)F)cc2=O)c1F` [KT-P2, (3S)-3-(2-(5-(2-(azetidin-1-yl)ethyl)-2-oxo-4-(trifluoromethyl)pyridin-1(2H)-yl)-4-methylpentanamido)-3-(2,4,4′-trifluoro-2′,3′,6′-trimethyl-5-(trifluoromethyl)-[1,1′-biphenyl]-3-yl)propanoic Acid], at most 10 nM.

Usually IC50 stands for the concentration that inhibits the measured activity by half.

The values above are taken from patent US11370773B1, “Inhibiting human integrin (alpha-4) (beta-7)” (Morphic Therapeutic, Inc., priority 2019, dated 2022).
